In patent US10370387B2, “Tricyclic fused thiophene derivatives as JAK inhibitors” (Incyte Corporation, priority 2012, dated 2019) one finds JAK2/JAK1 data, which are given here for 23 compounds.

This test concerns human JAK1. Nature of the test: In vitro JAK kinase assay (HTRF, phosphorylation of biotinylated peptide), JAK1. Type of test: biochemical. Conditions: ratio of JAK2 IC50 to JAK1 IC50, 1 mM ATP. The protocol: Compounds herein were tested for inhibitory activity of JAK targets according to the following in vitro assay described in Park et al., Analytical Biochemistry 1999, 269, 94-104. The catalytic domains of human JAK1 (a.a. 837-1142), JAK2 (a.a. 828-1132) and JAK3 (a.a. 781-1124) were expressed using baculovirus in insect cells and purified. The catalytic activity of JAK1, JAK2 or JAK3 was assayed by measuring the phosphorylation of a biotinylated peptide. The phosphorylated peptide was detected by homogenous time resolved fluorescence (HTRF). IC50s of compounds were measured for each kinase in the 40 μL reactions that contain the enzyme, ATP and 500 nM peptide in 50 mM Tris (pH 7.8) buffer with 100 mM NaCl, 5 mM DTT, and 0.1 mg/mL (0.01%) BSA. For the 1 mM IC50 measurements, ATP concentration in the reactions was 1 mM. Reactions were carried out at room temperature for 1 hour and then stopped with 20 μL 45 mM EDTA, 300 nM SA-APC, 6 nM Eu-Py20 in assay buffer (Perkin Elmer, Boston, Mass.). Binding to the Europium labeled antibody took place for 40 minutes and HTRF signal was measured on a PHERA star plate reader (BMG, Cary, N.C.). The Example compounds were each tested in the Example A assay (see Table 1 for data for the compounds of the examples as tested by the assay of Example A at 1 mM ATP).

As to `C[C@@H](O)c1nc2cnc3ccsc3c2n1[C@H]1CC[C@H](CC#N)[C@H](N)C1` [Example 67, ((1R,2R,4S)-2-Amino-4-{2-[(1R)-1-hydroxyethyl]-1H-imidazo[4,5-d]thieno[3,2-b]pyridin-1-yl}cyclohexyl)acetonitrile], the JAK2/JAK1 was >10.

Regarding `CC(N)c1nc2cnc3ccsc3c2n1[C@H]1CC[C@H](CC#N)OC1.O=C(O)C(F)(F)F` (stereo partly drawn) [Example 68, {(2R,5S)-5-[2-(1-Aminoethyl)-1H-imidazo[4,5-d]thieno[3,2-b]pyridin-1-yl]tetrahydro-2H-pyran-2-yl}acetonitrile trifluoroacetate], the JAK2/JAK1 is given as >10. With `CC(=O)NC(C)c1nc2cnc3ccsc3c2n1[C@H]1CC[C@H](CC#N)OC1` (stereo partly drawn) [Example 69, N-(1-{1-[(3S,6R)-6-(Cyanomethyl)tetrahydro-2H-pyran-3-yl]-1H-imidazo[4,5-d]thieno[3,2-b]pyridin-2-yl}ethyl) acetamide], the JAK2/JAK1 was >10.

Regarding `CNC(C)c1nc2cnc3ccsc3c2n1[C@H]1CC[C@H](CC#N)OC1` (stereo partly drawn) [Example 70, ((2R,5S)-5-{2-[1-(Methylamino)ethyl]-1H-imidazo[4,5-d]thieno[3,2-b]pyridin-1-yl}tetrahydro-2H-pyran-2-yl)acetonitrile], the JAK2/JAK1 is on record as >10. As for `CC(F)c1nc2cnc3ccsc3c2n1[C@H]1CC[C@H](CC#N)OC1` (stereo partly drawn) [Example 71, {(2R,5S)-5-[2-(1-Fluoroethyl)-1H-imidazo[4,5-d]thieno[3,2-b]pyridin-1-yl]tetrahydro-2H-pyran-2-yl}acetonitrile], the JAK2/JAK1 is reported as >10.

For `N#CCc1nc2cnc3ccsc3c2n1[C@H]1CC[C@H](CC#N)OC1` [Example 73, {(2R,5S)-5-[2-(Cyanomethyl)-1H-imidazo[4,5-d]thieno[3,2-b]pyridin-1-yl]tetrahydro-2H-pyran-2-yl}acetonitrile], the JAK2/JAK1 is given as >10. In the case of `N#CCc1nc2cnc3ccsc3c2n1[C@H]1CC[C@@H](CC#N)OC1` [Example 74, {(2S,5S)-5-[2-(Cyanomethyl)-1H-imidazo[4,5-d]thieno[3,2-b]pyridin-1-yl]tetrahydro-2H-pyran-2-yl}acetonitrile], the JAK2/JAK1 was >10. For the compound `C[C@@H](O)c1nc2cnc3ccsc3c2n1[C@H]1CC[C@H](CNS(C)(=O)=O)OC1` [Example 75, N-[((2R,5S)-5-{2-[(1R)-1-Hydroxyethyl]-1H-imidazo[4,5-d]thieno[3,2-b]pyridin-1-yl}tetrahydro-2H-pyran-2-yl)methyl]methanesulfonamide], the JAK2/JAK1 is listed as >10.

On to `CC(C)OC(=O)NC[C@H]1CC[C@H](n2c([C@@H](C)O)nc3cnc4ccsc4c32)CO1` [Example 76, Isopropyl [((2R,5S)-5-{2-[(1R)-1-hydroxyethyl]-1H-imidazo[4,5-d]thieno[3,2-b]pyridin-1-yl}tetrahydro-2H-pyran-2-yl)methyl]carbamate], for which the JAK2/JAK1 is listed as >10. For the compound `CC(=O)NC[C@H]1CC[C@H](n2c([C@@H](C)O)nc3cnc4ccsc4c32)CC1` [Example 79, N-[(trans-4-{2-[(1R)-1-Hydroxyethyl]-1H-imidazo[4,5-d]thieno[3,2-b]pyridin-1-yl}cyclohexyl)methyl]acetamide], the JAK2/JAK1 is listed as >10. In the case of `C[C@@H](O)c1nc2cnc3ccsc3c2n1[C@H]1CC[C@H](CNS(C)(=O)=O)CC1` [Example 80, N-[(trans-4-{2-[(1R)-1-Hydroxyethyl]-1H-imidazo[4,5-d]thieno[3,2-b]pyridin-1-yl}cyclohexyl)methyl]methanesulfonamide], the JAK2/JAK1 was >10. As for `C[C@@H](O)c1nc2cnc3ccsc3c2n1[C@H]1CC[C@H](CNC(=O)N(C)C)CC1` [Example 81, N′-[(trans-4-{2-[(1R)-1-Hydroxyethyl]-1H-imidazo[4,5-d]thieno[3,2-b]pyridin-1-yl}cyclohexyl)methyl]-N,N-dimethylurea], the JAK2/JAK1 is reported as >10. For `CCOC(=O)NC[C@H]1CC[C@H](n2c([C@@H](C)O)nc3cnc4ccsc4c32)CC1` [Example 82, Ethyl [(trans-4-{2-[(1R)-1-hydroxyethyl]-1H-imidazo[4,5-d]thieno[3,2-b]pyridin-1-yl}cyclohexyl)methyl]carbamate], the JAK2/JAK1 is reported as >10. Consider `CCCOC(=O)NC[C@H]1CC[C@H](n2c([C@@H](C)O)nc3cnc4ccsc4c32)CC1` [Example 83, Propyl [(trans-4-{2-[(1R)-1-hydroxyethyl]-1H-imidazo[4,5-d]thieno[3,2-b]pyridin-1-yl}cyclohexyl)methyl]carbamate], for which the JAK2/JAK1 was >10. In the case of `CC(C)OC(=O)NC[C@H]1CC[C@H](n2c([C@@H](C)O)nc3cnc4ccsc4c32)CC1` [Example 84, Isopropyl [(trans-4-{2-[(1R)-1-hydroxyethyl]-1H-imidazo[4,5-d]thieno[3,2-b]pyridin-1-yl}cyclohexyl)methyl]carbamate] it was >10; in that of `C[C@@H](O)c1nc2cnc3ccsc3c2n1[C@H]1CC[C@H](CNC(=O)OC2CCOC2)CC1` (stereo partly drawn) [Example 85, Tetrahydrofuran-3-yl [(trans-4-{2-[(1R)-1-hydroxyethyl]-1H-imidazo[4,5-d]thieno[3,2-b]pyridin-1-yl}cyclohexyl)methyl]carbamate], >10. In the case of `COC(=O)NC[C@H]1CC[C@H](n2c(CC#N)nc3cnc4ccsc4c32)CC1` [Example 86, Methyl ({trans-4-[2-(cyanomethyl)-1H-imidazo[4,5-d]thieno[3,2-b]pyridin-1-yl]cyclohexyl}methyl)carbamate], the JAK2/JAK1 is recorded as >10. Under `CCOC(=O)NC[C@H]1CC[C@H](n2c(CC#N)nc3cnc4ccsc4c32)CC1` [Example 87, Ethyl ({trans-4-[2-(cyanomethyl)-1H-imidazo[4,5-d]thieno[3,2-b]pyridin-1-yl]cyclohexyl}methyl)carbamate] stands >10. Regarding `CC(C)OC(=O)NC[C@H]1CC[C@H](n2c(CC#N)nc3cnc4ccsc4c32)CC1` [Example 88, Isopropyl ({trans-4-[2-(cyanomethyl)-1H-imidazo[4,5-d]thieno[3,2-b]pyridin-1-yl]cyclohexyl}methyl)carbamate], the JAK2/JAK1 was >10. Regarding `CCC(=O)NC[C@H]1CC[C@H](n2c(CC#N)nc3cnc4ccsc4c32)CC1` [Example 89, N-({trans-4-[2-(Cyanomethyl)-1H-imidazo[4,5-d]thieno[3,2-b]pyridin-1-yl]cyclohexyl}methyl)propanamide], the JAK2/JAK1 was >10.

Regarding `N#CCc1nc2cnc3ccsc3c2n1[C@H]1CC[C@H](CC#N)CC1` [Example 90, {1-[trans-4-(Cyanomethyl)cyclohexyl]-1H-imidazo[4,5-d]thieno[3,2-b]pyridin-2-yl}acetonitrile], the JAK2/JAK1 was >10. In the case of `N#CC[C@H]1CC[C@H](n2c(CO)nc3cnc4ccsc4c32)CO1` [Example 91, {(2R,5S)-5-[2-(Hydroxymethyl)-1H-imidazo[4,5-d]thieno[3,2-b]pyridin-1-yl]tetrahydro-2H-pyran-2-yl}acetonitrile] it was >10. Regarding “((1R,2R,4S)-2-Hydroxy-4-{2-[(1R)-1-hydroxyethyl]-1H-imidazo[4,5-d]thieno[3,2-b]pyridin-1-yl}cyclohexyl)acetonitrile and ((1S,2S,4R)-2-hydroxy-4-{2-[(1R)-1-hydroxyethyl]-1H-imidazo[4,5-d]thieno[3,2-b]pyridin-1-yl}cyclohexyl)acetonitrile [36 (first peak)]”, the JAK2/JAK1 is recorded as >10.
